Patent US6613506B1, “Compositions and methods for inhibiting human immunodeficiency virus infection by down-regulating human cellular genes” (Subsidiary No. 3, Inc., priority 2000, dated 2003)

What was measured:
[1] = test system: OM10.1 cells; type: cell-based; settings: human, 24 h, 100 nM
[2] = test system: human peripheral blood leukocytes (PBLs); assay: Uninfected human PBL controls with mofarotene alone (CD4, p24, CD3); type: cell-based; settings: for % CD4^+ in population / % p24^− in CD4^− T population: HIV −; for % CD4^+ in population: CD3+ T cells of human PBLs; for % p24^− in CD4^− T population: human PBLs
Description: (§1) Human peripheral blood leukocytes (PBLs) were isolated using Ficoll-Hypaque density gradient separation. Cells were washed twice and resuspended in RPMI+10% FBS+2% human AB serum+penicillin/streptomycin/glutamine+100 Units/mL of IL-2 at a concentration of 0.5×10^6 cells/mL. PBLs were then activated with phytohemagglutinin at 0.5 μg/mL and placed in a humidified incubator at 37° C./5% CO2. After two days of activation, 10^6 cells were infected with HIV-1SF33 at TCID50 of 1000, in the presence of various concentrations of mofarotene: 0 μM, 1 μM, 0.5 μM, 0.1 μM, and 0.05 μM. A separate set of uninfected samples under identical concentrations of mofarotene were also maintained as controls. The samples were analyzed by flow cytometry at day 4 and day 6 post infection. The cells were gated for CD3 expression (for T cells). Then the expression of CD4 and viral p24 and CD4 was examined by bivariate dot plot.

[3] = test system: latent HIV provirus in OM10.1 cells; assay: Induction of latent HIV provirus by TNF-α in OM10.1 cells (CD4 retention, p24); type: cell-based, HIV-1
Description: In order to determine p24 expression in HIV-infected cells, the cells were first washed twice with Assay Buffer. About 10^6 cells were suspended in 100 μL Assay Buffer, mixed with 2 mL of Ortho PermeaFix Solution (available from Ortho Diagnostics), and incubated for 40 min. at room temperature. After centrifugation at 1200 rpm for 4 min. at 4EC, the cells were resuspended in 2 mL Wash Buffer (500 mL PBS, 25 mL fetal bovine serum, 1.5% bovine serum albumin and 0.0055% EDTA) for 10 min. at room temperature. After centrifugation, the cells were resuspended in 50 ΦL Wash Buffer and mixed with 1:500 dilution of an IgG2a antibody for 20 min. at 4EC, followed by incubation with 5-10 ΦL of anti-p24 antibody (KC57-FITC, available from Coulter) for 30 min. at 4EC. The cells were then washed twice with Wash Buffer and analyzed by flow cytometry.
One strategy selected for GSEs which suppressed productive infection of cells by HIV. The second strategy selected for GSEs which suppressed induction of the latent provirus in OM10.1 cells. When OM10.1 cells were treated with TNF-α and stained with an antibody specific for the cell surface molecule CD4, a rapid loss of CD4 expression was observed (FIG. 1). In contrast, the vast majority of the uninduced OM10.1 cells retained CD4 expression. It is believed that activation of the latent virus in OM10.1 cells by TNF-α leads to the production of viral protein gp120, which binds to cytoplasmic CD4, thereby preventing its translocation to the cell surface. A diminution of CD4^+ OM10.1 cells also correlates with an increased production of viral protein p24 in the cells following TNF-α induction.
OM10.1 cells were cultured in RPMI 1640 glucose-free media prior to and during incubation with NADH dehydrogenase inhibitors and TNF-á induction. The inhibitors were added to the cells followed by TNF-á induction 1-2 hours later. The expression of CD4 by the cells was assessed by anti-CD4 antibody staining and flow cytometry after 24 hour incubation at 37° C.

[4] = test system: HIV-1SF33; assay: Productive infection of activated human PBLs with HIV-1SF33, flow cytometry of CD3+ T cells; type: cell-based; settings: for % CD4^+ in population / % p24+ cells among CD4+ T cells: HIV +, day 6; for % CD4^+ in population: CD3+ T cells of human PBLs; for % p24+ cells among CD4+ T cells: human PBLs
Description: as §1
In order to test the ability of a NADH dehydrogenase inhibitor to prevent productive infection of T cells by HIV, human PBLs were isolated and infected with HIVSF33 in the presence of various concentrations of mofarotene.

C/C(=C\c1ccc(OCCN2CCOCC2)cc1)c1ccc2c(c1)C(C)(C)CCC2(C)C [mofarotene, Mofarotene]
cells that remained viable [1]: greater than 80%
% CD4^+ in population ([2]; mofarotene 0.05 μM, day 6): 33%
% p24^− in CD4^− T population ([2]; mofarotene 0.05 μM, day 6): 0%
% CD4^+ in population ([2]; mofarotene 0.1 μM, day 6): 34%
% p24^− in CD4^− T population ([2]; mofarotene 0.1 μM, day 6): 0%
% CD4^+ in population ([2]; mofarotene 0.5 μM, day 6): 34%
% p24^− in CD4^− T population ([2]; mofarotene 0.5 μM, day 6): 0%
% CD4^+ in population ([2]; mofarotene 1.0 μM, day 6): 36%
% p24^− in CD4^− T population ([2]; mofarotene 1.0 μM, day 6): 0%
expression level of CD3 on the cell surface ([2]; day 4): nor did it alter the expression level of CD3 on the cell surface
percentage of CD4^+ T cells, mofarotene alone ([2]; day 4): did not significantly alter the percentage of CD4^+ T cells
expression level of CD3 on the cell surface ([2]; day 6): did not alter the expression level of CD3 on the cell surface
increase of the percentage of CD4^+ T cells in uninfected samples by mofarotene alone ([2]; day 6, uninfected samples): up to 4%
cells that retained CD4 expression ([3]; 100 nM of mofarotene, TNF-α-induced OM10.1 cells): 80%
inhibition of induction of latent HIV provirus (retention of CD4 expression) ([3]; TNF-α-induced OM10.1 cells, 24 hour incubation, FIG. 5 / FIG. 6): inhibited HIV-1 induction at even lower concentrations
intracellular p24 levels ([3]; treated cells compared with untreated controls): suppressed intracellular p24 levels
% CD4^+ in population ([4]; mofarotene 0.05 μM): 18%
% p24+ cells among CD4+ T cells ([4]; mofarotene 0.05 μM): 20.5%
% CD4^+ in population ([4]; mofarotene 0.1 μM): 28%
% p24+ cells among CD4+ T cells ([4]; mofarotene 0.1 μM): 11.4%
% CD4^+ in population ([4]; mofarotene 0.5 μM): 24%
% p24+ cells among CD4+ T cells ([4]; mofarotene 0.5 μM): 12.5%
% CD4^+ in population ([4]; mofarotene 1.0 μM): 25%
% p24+ cells among CD4+ T cells ([4]; mofarotene 1.0 μM): 10%
% p24+ cells among CD4+ T cells ([4]; mofarotene 1.0 μM, listed as Mofarotene): 10%
difference between HIV-infected PBLs with or without mofarotene ([4]; day 4 post-infection): little detectable difference
depletion of CD4^+ T cells by HIV infection ([4]; day 6, 1 μM mofarotene): inhibited the depletion of CD4^+ T cells by HIV infection
level of protection (percentage of p24+ CD4+ T cells and of CD4+ cells in CD3+ T cells) versus concentration ([4]; day 6, 1 to 0.05 μM): diminished with decreased concentrations of mofarotene
